The values that follow are results of earlier work, collected in patent US20210145763A1, “LOW THC HEMP EXTRACT AND METHOD OF TREATMENT OR PREVENTION OF AN EYE DISEASE” (EYE CO PTY LTD, priority 2018, published 2021).

The target in data set [1] is T1, mineralocorticoid receptor (Homo sapiens, UniProt P08235).
T1 sequence (P08235 1-984): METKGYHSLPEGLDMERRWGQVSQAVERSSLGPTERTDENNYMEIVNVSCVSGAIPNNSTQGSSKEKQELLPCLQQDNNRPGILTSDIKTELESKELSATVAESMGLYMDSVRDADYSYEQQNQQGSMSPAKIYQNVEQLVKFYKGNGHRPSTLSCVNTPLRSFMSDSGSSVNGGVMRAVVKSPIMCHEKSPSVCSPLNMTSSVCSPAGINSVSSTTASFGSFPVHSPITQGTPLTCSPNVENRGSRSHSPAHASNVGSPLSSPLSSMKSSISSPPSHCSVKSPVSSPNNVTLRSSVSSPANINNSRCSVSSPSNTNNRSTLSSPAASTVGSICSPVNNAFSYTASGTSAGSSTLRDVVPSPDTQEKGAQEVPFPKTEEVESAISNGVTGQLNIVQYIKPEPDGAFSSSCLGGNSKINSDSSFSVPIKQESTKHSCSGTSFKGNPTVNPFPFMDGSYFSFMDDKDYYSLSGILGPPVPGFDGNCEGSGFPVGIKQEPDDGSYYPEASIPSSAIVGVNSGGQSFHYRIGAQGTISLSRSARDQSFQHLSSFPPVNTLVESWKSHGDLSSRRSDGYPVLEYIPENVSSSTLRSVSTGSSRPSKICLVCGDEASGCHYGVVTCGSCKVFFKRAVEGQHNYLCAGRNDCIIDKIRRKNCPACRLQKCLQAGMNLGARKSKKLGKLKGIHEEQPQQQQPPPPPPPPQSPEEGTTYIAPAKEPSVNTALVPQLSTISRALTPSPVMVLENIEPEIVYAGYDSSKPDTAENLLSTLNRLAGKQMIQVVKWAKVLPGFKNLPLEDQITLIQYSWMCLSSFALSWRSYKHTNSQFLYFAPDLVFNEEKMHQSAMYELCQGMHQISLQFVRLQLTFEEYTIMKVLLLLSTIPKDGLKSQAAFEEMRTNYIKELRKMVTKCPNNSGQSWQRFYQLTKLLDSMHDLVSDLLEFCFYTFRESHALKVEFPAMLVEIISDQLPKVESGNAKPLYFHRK
Particulars: relative potency, hydrocortisone = 1.

The conditions of data set [2]: in vivo.
Data set [3] addresses T2, glucocorticoid receptor (Homo sapiens, UniProt P04150).
T2 sequence (P04150 1-777): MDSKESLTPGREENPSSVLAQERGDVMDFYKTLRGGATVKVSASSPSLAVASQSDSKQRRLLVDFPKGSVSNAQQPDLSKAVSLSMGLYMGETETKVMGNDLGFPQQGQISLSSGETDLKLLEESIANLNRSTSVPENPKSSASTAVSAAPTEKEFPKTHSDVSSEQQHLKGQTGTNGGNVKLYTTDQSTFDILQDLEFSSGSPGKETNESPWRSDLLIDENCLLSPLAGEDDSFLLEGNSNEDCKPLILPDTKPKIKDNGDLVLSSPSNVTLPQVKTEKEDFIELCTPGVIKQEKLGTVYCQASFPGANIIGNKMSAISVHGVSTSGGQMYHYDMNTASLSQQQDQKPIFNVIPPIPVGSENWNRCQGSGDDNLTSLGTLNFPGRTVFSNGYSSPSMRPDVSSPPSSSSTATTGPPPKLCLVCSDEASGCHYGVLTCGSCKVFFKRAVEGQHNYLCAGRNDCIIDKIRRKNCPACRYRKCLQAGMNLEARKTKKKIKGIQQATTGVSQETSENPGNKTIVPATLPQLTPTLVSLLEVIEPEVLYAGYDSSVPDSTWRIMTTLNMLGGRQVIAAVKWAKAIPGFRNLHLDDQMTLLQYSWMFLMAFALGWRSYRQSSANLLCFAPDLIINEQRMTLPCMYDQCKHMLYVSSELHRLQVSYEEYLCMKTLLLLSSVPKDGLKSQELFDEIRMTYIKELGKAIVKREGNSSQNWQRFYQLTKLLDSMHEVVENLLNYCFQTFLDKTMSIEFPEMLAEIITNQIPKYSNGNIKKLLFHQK
The settings on record: relative potency, hydrocortisone = 1.

With `C[C@]12C=CC(=O)C=C1CC[C@@H]1[C@@H]2C(=O)C[C@@]2(C)[C@H]1CC[C@]2(O)C(=O)CO` [Prednisone], the MR potency in data set [1] is 0.8. Besides, in data set [2], the “Duration of action (t1/2 in hours)” value was 16 to 36 h.

`C[C@]12CCC(=O)C=C1CC[C@@H]1[C@@H]2[C@@H](O)C[C@@]2(C)[C@H]1CC[C@]2(O)C(=O)CO` [Hydrocortisone (cortisol), Hydrocortisone]: in data set [3], the GR potency was 1. Moreover, in data set [1], the MR potency is recorded as 1.

Consider `CC(=O)OCC(=O)[C@@]1(O)CC[C@H]2[C@@H]3CCC4=CC(=O)CC[C@]4(C)[C@@]3(F)[C@@H](O)C[C@@]21C` [Fludrocortisone acetate], for which, in data set [1], the MR potency is 200.

As to `C[C@H]1C[C@@H]2[C@H]([C@@H](O)C[C@@]3(C)[C@H]2CC[C@]3(O)C(=O)CO)[C@@]2(C)C=CC(=O)C=C12` [Methylprednisolone], the “Duration of action (t1/2 in hours)” value in data set [2] is 18 to 40 h.

For `C[C@]12CCC(=O)C=C1CC[C@@H]1[C@@H]2C(=O)C[C@@]2(C)[C@H]1CC[C@]2(O)C(=O)CO` [Cortisone], the GR potency in data set [3] was 0.8. In addition, the MR potency in data set [1] was 0.8.

Take `C[C@]12CCC(=O)C=C1CC[C@@H]1[C@@H]2[C@@H](O)C[C@]2(C=O)[C@@H](C(=O)CO)CC[C@@H]12` [Aldosterone]: in data set [3], the GR potency is 0.3. The MR potency in data set [1] is given as 200-1000.

`CC(=O)OCC(=O)[C@H]1CC[C@H]2[C@@H]3CCC4=CC(=O)CC[C@]4(C)[C@H]3CC[C@]12C` [Deoxycorticosterone acetate (DOCA), Deoxycorticosterone acetate]: the GR potency in data set [3] is recorded as 0. Further, the MR potency in data set [1] is on record as 20.

On to `C[C@]12C=CC(=O)C=C1CC[C@@H]1[C@@H]2[C@@H](O)C[C@@]2(C)[C@H]1CC[C@]2(O)C(=O)CO` [Prednisolone], for which, in data set [3], the GR potency is on record as 4. Also, the MR potency in data set [1] is given as 0.8. Further, in data set [2], the “Duration of action (t1/2 in hours)” value was 16 to 36 h.

With `C[C@]12C=CC(=O)C=C1CC[C@H]1[C@@H]3C[C@@H](O)[C@](O)(C(=O)CO)[C@@]3(C)C[C@H](O)[C@@]12F` [Triamcinolone], the GR potency in data set [3] is given as 5. Besides, in data set [1], the MR potency is 0. In data set [2], the “Duration of action (t1/2 in hours)” value is 12 to 36 h.
